Results from BigSolDB 2.1.

C[C@@H]1O[C@@H](OC[C@H]2O[C@@H](Oc3c(-c4ccc(OCCO)c(OCCO)c4)oc4cc(OCCO)cc(O)c4c3=O)[C@H](O)[C@@H](O)[C@@H]2O)[C@H](O)[C@H](O)[C@H]1O
solubility (mole fraction) (in 1,4-dioxane, 288.15 K): 0.000517
solubility (mole fraction) (in 1,4-dioxane, 293.15 K): 0.000596
solubility (mole fraction) (in 1,4-dioxane, 298.15 K): 0.000724
solubility (mole fraction) (in 1,4-dioxane, 303.15 K): 0.000865
solubility (mole fraction) (in 1,4-dioxane, 308.15 K): 0.00103
solubility (mole fraction) (in 1,4-dioxane, 313.15 K): 0.00121
solubility (mole fraction) (in 1,4-dioxane, 318.15 K): 0.00144
solubility (mole fraction) (in 1,4-dioxane, 323.15 K): 0.00171
solubility (mole fraction) (in acetone, 288.15 K): 3.1e-05
solubility (mole fraction) (in acetone, 293.15 K): 3.4e-05
solubility (mole fraction) (in acetone, 298.15 K): 4.2e-05
solubility (mole fraction) (in acetone, 303.15 K): 5.5e-05
solubility (mole fraction) (in acetone, 308.15 K): 7e-05
solubility (mole fraction) (in acetone, 313.15 K): 9.1e-05
solubility (mole fraction) (in acetone, 318.15 K): 0.000124
solubility (mole fraction) (in acetone, 323.15 K): 0.000162
solubility (mole fraction) (in acetonitrile, 288.15 K): 8e-06
solubility (mole fraction) (in acetonitrile, 293.15 K): 1.2e-05
solubility (mole fraction) (in acetonitrile, 298.15 K): 1.5e-05
solubility (mole fraction) (in acetonitrile, 303.15 K): 2.1e-05
solubility (mole fraction) (in acetonitrile, 308.15 K): 2.8e-05
solubility (mole fraction) (in acetonitrile, 313.15 K): 3.8e-05
solubility (mole fraction) (in acetonitrile, 318.15 K): 4.9e-05
solubility (mole fraction) (in acetonitrile, 323.15 K): 7e-05
solubility (mole fraction) (in ethanol, 288.15 K): 0.000228
solubility (mole fraction) (in ethanol, 293.15 K): 0.000252
solubility (mole fraction) (in ethanol, 298.15 K): 0.00029
solubility (mole fraction) (in ethanol, 303.15 K): 0.000346
solubility (mole fraction) (in ethanol, 308.15 K): 0.000407
solubility (mole fraction) (in ethanol, 313.15 K): 0.000468
solubility (mole fraction) (in ethanol, 318.15 K): 0.000547
solubility (mole fraction) (in ethanol, 323.15 K): 0.000632
solubility (mole fraction) (in isobutanol, 288.15 K): 4.1e-05
solubility (mole fraction) (in isobutanol, 293.15 K): 5.4e-05
solubility (mole fraction) (in isobutanol, 298.15 K): 7e-05
solubility (mole fraction) (in isobutanol, 303.15 K): 9e-05
solubility (mole fraction) (in isobutanol, 308.15 K): 0.000125
solubility (mole fraction) (in isobutanol, 313.15 K): 0.000176
solubility (mole fraction) (in isobutanol, 318.15 K): 0.000238
solubility (mole fraction) (in isobutanol, 323.15 K): 0.000312
solubility (mole fraction) (in isopropanol, 288.15 K): 9.3e-05
solubility (mole fraction) (in isopropanol, 293.15 K): 0.000119
solubility (mole fraction) (in isopropanol, 298.15 K): 0.000161
solubility (mole fraction) (in isopropanol, 303.15 K): 0.000207
solubility (mole fraction) (in isopropanol, 308.15 K): 0.000268
solubility (mole fraction) (in isopropanol, 313.15 K): 0.000329
solubility (mole fraction) (in isopropanol, 318.15 K): 0.000403
solubility (mole fraction) (in isopropanol, 323.15 K): 0.000519
solubility (mole fraction) (in methanol, 288.15 K): 0.000245
solubility (mole fraction) (in methanol, 293.15 K): 0.000291
solubility (mole fraction) (in methanol, 298.15 K): 0.000362
solubility (mole fraction) (in methanol, 303.15 K): 0.00045
solubility (mole fraction) (in methanol, 308.15 K): 0.000573
solubility (mole fraction) (in methanol, 313.15 K): 0.000714
solubility (mole fraction) (in methanol, 318.15 K): 0.000876
solubility (mole fraction) (in methanol, 323.15 K): 0.00107
solubility (mole fraction) (in n-butanol, 288.15 K): 8e-05
solubility (mole fraction) (in n-butanol, 293.15 K): 0.000102
solubility (mole fraction) (in n-butanol, 298.15 K): 0.000142
solubility (mole fraction) (in n-butanol, 303.15 K): 0.000187
solubility (mole fraction) (in n-butanol, 308.15 K): 0.000248
solubility (mole fraction) (in n-butanol, 313.15 K): 0.000312
solubility (mole fraction) (in n-butanol, 318.15 K): 0.000382
solubility (mole fraction) (in n-butanol, 323.15 K): 0.000494
solubility (mole fraction) (in n-pentanol, 288.15 K): 7.1e-05
solubility (mole fraction) (in n-pentanol, 293.15 K): 9e-05
solubility (mole fraction) (in n-pentanol, 298.15 K): 0.000107
solubility (mole fraction) (in n-pentanol, 303.15 K): 0.000132
solubility (mole fraction) (in n-pentanol, 308.15 K): 0.00017
solubility (mole fraction) (in n-pentanol, 313.15 K): 0.000222
solubility (mole fraction) (in n-pentanol, 318.15 K): 0.000289
solubility (mole fraction) (in n-pentanol, 323.15 K): 0.000377
solubility (mole fraction) (in n-propanol, 288.15 K): 0.000144
solubility (mole fraction) (in n-propanol, 293.15 K): 0.000177
solubility (mole fraction) (in n-propanol, 298.15 K): 0.000215
solubility (mole fraction) (in n-propanol, 303.15 K): 0.000258
solubility (mole fraction) (in n-propanol, 308.15 K): 0.000317
solubility (mole fraction) (in n-propanol, 313.15 K): 0.000377
solubility (mole fraction) (in n-propanol, 318.15 K): 0.000458
solubility (mole fraction) (in n-propanol, 323.15 K): 0.000562
solubility (mole fraction) (in sec-butanol, 288.15 K): 8.6e-05
solubility (mole fraction) (in sec-butanol, 293.15 K): 0.000108
solubility (mole fraction) (in sec-butanol, 298.15 K): 0.00015
solubility (mole fraction) (in sec-butanol, 303.15 K): 0.000194
solubility (mole fraction) (in sec-butanol, 308.15 K): 0.000254
solubility (mole fraction) (in sec-butanol, 313.15 K): 0.000319
solubility (mole fraction) (in sec-butanol, 318.15 K): 0.000391
solubility (mole fraction) (in sec-butanol, 323.15 K): 0.000505
